Laboratory results taken from ChEMBL document CHEMBL5608170, “An insight into sustainable and green chemistry approaches for the synthesis of quinoline derivatives as anticancer agents” (Eur J Med Chem, 2024).
pIC50: −log10 of the molar value. ≈ marks a conversion by molar mass, not a printed value.

Experiments:
HepG2 [1] = assay: Cytotoxicity against human HepG2 cells assessed as reduction in cell viability incubated for 24 hrs by MTT assay; type: functional, cell-based; conditions: HepG2, 24 h
HCT-116 = assay: Cytotoxicity against human HCT-116 cells assessed as reduction in cell viability incubated for 24 hrs by MTT assay; type: functional, cell-based; conditions: HCT-116, 24 h
A549 [2] = assay: Cytotoxicity against human A549 cells assessed as reduction in cell viability incubated for 24 hrs by MTT assay; type: functional, cell-based; conditions: A549, 24 h
MCF7 [3] = assay: Cytotoxicity against human MCF7 cells assessed as reduction in cell viability incubated for 24 hrs by MTT assay; type: functional, cell-based; conditions: MCF7, 24 h
HeLa [4] = assay: Growth inhibition of human HeLa cells by SRB assay; type: functional
HCT 116 TP53(-/-) = assay: Antiproliferative activity against human HCT116-p53-null cells assessed as reduction in cell viability by MTT assay; type: functional, cell-based
MDA-MB-231 [5] = assay: Cytotoxicity against human MDA-MB-231 cells assessed as reduction in cell growth measured for 48 hrs by MTT assay; type: functional, cell-based; conditions: MDA-MB-231, 48 h
MDA-MB-231 [6] = assay: Cytotoxicity against human MDA-MB-231 cells assessed as reduction in cell viability incubated for 48 hrs by MTT assay; type: functional, cell-based; conditions: MDA-MB-231, 48 h
A498 = assay: Growth inhibition of human A498 cells at 10 uM by SRB assay relative to control; type: functional; conditions: read-out: GI
HOP-62 = assay: Growth inhibition of human HOP-62 cells at 10 uM by SRB assay relative to control; type: functional; conditions: read-out: GI
UO-31 = assay: Growth inhibition of human UO-31 cells at 10 uM by SRB assay relative to control; type: functional; conditions: read-out: GI
CCRF-CEM = assay: Growth inhibition of human CCRF-CEM cells at 10 uM by SRB assay relative to control; type: functional; conditions: read-out: GI
HOP-92 = assay: Growth inhibition of human HOP-92 cells at 10 uM by SRB assay relative to control; type: functional; conditions: read-out: GI
MCF7 [7] = assay: Cytotoxicity against human MCF7 cells assessed as reduction in cell growth by MTT assay; type: functional, cell-based
HepG2 [8] = assay: Cytotoxicity against human HepG2 cells assessed as reduction in cell growth by MTT assay; type: functional, cell-based
A549 [9] = assay: Cytotoxicity against human A549 cells assessed as reduction in cell growth by MTT assay; type: functional, cell-based
PC-3 = assay: Cytotoxicity against human PC-3 cells assessed as reduction in cell growth measured for 48 hrs by MTT assay; type: functional, cell-based; conditions: PC-3, 48 h
DU-145 = assay: Cytotoxicity against human DU-145 cells assessed as reduction in cell growth measured for 48 hrs by MTT assay; type: functional, cell-based; conditions: DU-145, 48 h
[10] = Cytotoxicity against human HEp-2C cells assessed as reduction in cell viability incubated for 72 hrs by MTT assay; type: functional, cell-based; conditions: Hep2C
HeLa [11] = assay: Anticancer activity against human HeLa cells assessed as reduction in cell growth incubated for 48 hrs by MTT assay; type: functional, cell-based
MCF7 [12] = assay: Anticancer activity against human MCF7 cells assessed as reduction in cell growth incubated for 48 hrs by MTT assay; type: functional, cell-based; conditions: MCF7, 48 h
CAKI-1 = assay: Growth inhibition of human CAKI-1 cells at 10 uM by SRB assay relative to control; type: functional; conditions: read-out: GI
Hs-578T = assay: Growth inhibition of human Hs-578T cells at 10 uM by SRB assay relative to control; type: functional; conditions: read-out: GI
TK-10 = assay: Growth inhibition of human TK-10 cells at 10 uM by SRB assay relative to control; type: functional; conditions: read-out: GI
NCI-H460 = assay: Antiproliferative activity against human NCI-H460 cells assessed as reduction in cell viability by MTT assay; type: functional, cell-based
A549 [13] = assay: Antiproliferative activity against human A549 cells assessed as reduction in cell viability by MTT assay; type: functional, cell-based
A549 [14] = assay: Anticancer activity against human A549 cells assessed as reduction in cell growth incubated for 48 hrs by MTT assay; type: functional, cell-based; conditions: A549, 48 h

## N#CC1=C(N)Oc2c(ccc3cccnc23)C1c1ccc(Br)cc1 (configuration not stated)
HepG2 [1]
  IC50: 1.41 µg/mL (≈ 3.73 µM)
HCT-116
  IC50: 1.3 µg/mL (≈ 3.44 µM)
A549 [2]
  IC50: 38 µg/mL (≈ 100 µM)
MCF7 [3]
  IC50: 1.17 µg/mL (≈ 3.09 µM)

## CC(=O)NC1=NN(C(C)=O)C(c2cc3cc(Br)ccc3n3nnnc23)S1 (configuration not stated)
HeLa [4]
  GI50: < 100 nM

## CC(=O)NC1=NN(C(C)=O)C(c2cc3cc(Cl)ccc3n3nnnc23)S1 (configuration not stated)
HeLa [4]
  GI50: < 100 nM

## N#CC1=C(N)Oc2c(cc(Cl)c3cccnc23)C1c1ccc(Br)cc1 (configuration not stated)
HepG2 [1]
  IC50: 1.23 µg/mL (≈ 2.98 µM)
HCT-116
  IC50: 5.81 µg/mL (≈ 14.1 µM)
A549 [2]
  IC50: 3.1 µg/mL (≈ 7.51 µM)
MCF7 [3]
  IC50: 0.99 µg/mL (≈ 2.4 µM)

## Cc1ccc2ccc3c(c2n1)OC(N)=C(C#N)C3c1cccc(Cl)c1Cl (configuration not stated)
HepG2 [1]
  IC50: 1.83 µg/mL (≈ 4.79 µM)
MCF7 [3]
  IC50: 1.24 µg/mL (≈ 3.24 µM)

## O=[N+]([O-])c1c(Nc2ccc(F)c(Cl)c2)nc2ccccc2c1Nc1ccc(F)c(Cl)c1
HCT 116 TP53(-/-)
  pIC50: 5.29

## O=C1N(c2ccc([N+](=O)[O-])cc2[N+](=O)[O-])c2[nH]c(=O)[nH]c(=O)c2C12c1ccccc1Nc1c2[nH]c(=O)[nH]c1=O (configuration not stated)
MDA-MB-231 [5]
  pIC50: 4.97

## COc1ncc(-c2cc(-c3cn(Cc4ccccc4F)nn3)cc3ccc(C)nc23)cc1F
MDA-MB-231 [6]
  pIC50: 4.69

## Cc1cc(=O)n(C(=O)Nc2ccc(F)c(Cl)c2)c2cc(O)ccc12
A498
  inhibition of growth at 10 µM: 20.5%
HOP-62
  inhibition of growth at 10 µM: 17.6%
UO-31
  inhibition of growth at 10 µM: 30%
CCRF-CEM
  inhibition of growth at 10 µM: 58.6%
HOP-92
  inhibition of growth at 10 µM: 27.4%

## COc1ccc(Nc2nc3ccccc3c(NCc3ccccc3Cl)c2[N+](=O)[O-])cc1
HCT 116 TP53(-/-)
  pIC50: 5.32

## N#CC1C(=S)N=C2C(=C1c1ccc(F)cc1)CCC/C2=C\c1ccc(F)cc1 (configuration not stated)
MCF7 [7]
  IC50: 13.1 µg/mL (≈ 33.7 µM)
HepG2 [8]
  IC50: 11.2 µg/mL (≈ 28.8 µM)
A549 [9]
  IC50: 28.4 µg/mL (≈ 72.9 µM)

## O=C1N(c2ccc(Cl)cc2)c2[nH]c(=O)[nH]c(=O)c2C12c1ccccc1Nc1c2[nH]c(=O)[nH]c1=O (configuration not stated)
PC-3
  pIC50: 4.70
DU-145
  pIC50: 4.78

## Clc1cccc(NCN2CCCc3ccccc32)c1
[10]
  pIC50: 4.92

## COc1cccc(-n2nnc3c2-c2ccc4cccnc4c2OC3)c1
HeLa [11]
  pIC50: 4.80
MCF7 [12]
  pIC50: 4.50

## Cc1cc(=O)n(C(=O)Nc2ccccc2)c2cc(O)ccc12
CAKI-1
  inhibition of growth at 10 µM: 12.4%
UO-31
  inhibition of growth at 10 µM: 23.1%
Hs-578T
  inhibition of growth at 10 µM: 11.5%
HOP-92
  inhibition of growth at 10 µM: 16%
TK-10
  inhibition of growth at 10 µM: 82.9%

## COc1ccccc1Nc1nc2ccccc2c(Nc2ccccc2OC)c1[N+](=O)[O-]
NCI-H460
  pIC50: 5.27
A549 [13]
  pIC50: 5.19

## Cc1cc(C)cc(-n2nnc3c2-c2ccc4cccnc4c2OC3)c1
HeLa [11]
  pIC50: 4.94
MCF7 [12]
  pIC50: 4.77
A549 [14]
  pIC50: 4.49

## O=C1N(c2cccnc2)c2[nH]c(=O)[nH]c(=O)c2C12c1ccccc1Nc1c2[nH]c(=O)[nH]c1=O (configuration not stated)
PC-3
  pIC50: 4.81
MDA-MB-231 [5]
  pIC50: 5.10
DU-145
  pIC50: 4.83

## Cc1ccc2ccc3c(c2n1)OC(N)=C(C#N)C3c1cccc(Cl)c1 (configuration not stated)
HepG2 [1]
  IC50: 3.01 µg/mL (≈ 8.65 µM)
MCF7 [3]
  IC50: 5.79 µg/mL (≈ 16.6 µM)

## N#CC1C(=S)N=C2C(=C1c1ccc(Cl)cc1)CCC/C2=C\c1ccc(Cl)cc1 (configuration not stated)
MCF7 [7]
  IC50: 3.17 µg/mL (≈ 7.49 µM)
HepG2 [8]
  IC50: 2.86 µg/mL (≈ 6.76 µM)
A549 [9]
  IC50: 25.5 µg/mL (≈ 60.3 µM)
